Consider 36 compounds from patent publication US10913710B2, “Benzene disulfonamide for the treatment of cancer” (priority 2017, dated 2021).

The assay addresses PDEδ (Homo sapiens (Human), UniProt O43924). Put plainly: Fluorescence polarization competition binding assay: displacement titration of labeled Atorvastatin probe for KD. The following applies: fluorescence polarization assay; activity classes; read-out: KD. Here is the method:
Example D.2: Displacement Titrations of Labeled Atorvastatin-Probe for the Determination of KD Values
Displacement Titrations of Labeled Atorvastatin-Probe for the Determination of KD Values:
The purification was followed by size exclusion gel filtration on a Superdex 75 S26/60 column using buffer A (25 mM Tris-HCl, pH 7.5, 150 mM NaCl and 3 mM DTE).

SMILES strings stand for the structures.

By Kd is commonly meant the concentration at which binding is half-saturated. In the case of `O=S(=O)(c1ccc(S(=O)(=O)N(Cc2ccc(Cl)cc2)C2CCCC2)cc1)N(Cc1ccccc1Br)CC1CCCCC1` [Compound 34, N1-(2-bromobenzyl)-N4-(4-chlorobenzyl)-N1-(cyclohexylmethyl)-N4-cyclopentylbenzene-1,4-disulfonamide], the Kd lay within 30 to 100 nM.

Take `O=S(=O)(c1ccc(S(=O)(=O)N(Cc2ccc(Cl)cc2)C2CCCC2)cc1)N(Cc1cccc(Br)c1)CC1CCCCC1` [Compound 35, N1-(3-bromobenzyl)-N4-(4-chlorobenzyl)-N1-(cyclohexylmethyl)-N4-cyclopentylbenzene-1,4-disulfonamide]: the Kd was in the range of 30 to 100 nM. As for `O=S(=O)(c1ccc(S(=O)(=O)N(Cc2ccc(Cl)cc2)C2CCCC2)cc1)N(CC1CCCCC1)c1ccccc1Br` [Compound 36, N1-(2-bromophenyl)-N4-(4-chlorobenzyl)-N1-(cyclohexylmethyl)-N4-cyclopentylbenzene-1,4-disulfonamide], the Kd fell in the range of 30 to 100 nM. The figure for `O=S(=O)(c1ccc(S(=O)(=O)N(Cc2ccc(Cl)cc2)C2CCCC2)cc1)N(CC1CCCCC1)c1cc(C(F)(F)F)ccc1Br` [Compound 37, N1-(2-bromo-5-(trifluoromethyl)phenyl)-N4-(4-chlorobenzyl)-N1-(cyclohexylmethyl)-N4-cyclopentylbenzene-1,4-disulfonamide] is 30 to 100 nM.

Turning to `O=CC1Cc2ccccc2N1S(=O)(=O)c1ccc(S(=O)(=O)N(Cc2ccc(Cl)cc2)C2CCCC2)cc1` (stereo not drawn) [Compound 38], the dissociation constant Kd was 100 to 1000 nM.

Turning to `O=S(=O)(NCC1CCOCC1)c1ccc(S(=O)(=O)N(Cc2ccc(Cl)cc2)C2CCCC2)cc1` [Compound 39], the Kd lay in the range of 30 to 100 nM. The figure for `CCOC(=O)c1ccccc1CN(CC1CCOCC1)S(=O)(=O)c1ccc(S(=O)(=O)N(Cc2ccc(Cl)cc2)C2CCCC2)cc1` [Compound 40, ethyl 2-(((4-(N-(4-chlorobenzyl)-N-cyclopentylsulfamoyl)-N-((tetrahydro-2H-pyran-4-yl)methyl)phenyl)sulfonamido)methyl)benzoate] is 100 to 1000 nM; for `Cc1ccsc1N(Cc1ccccn1)S(=O)(=O)c1ccc(S(=O)(=O)N(Cc2ccccn2)c2sccc2C)cc1` [Compound 41] it is more than 1000 nM; for `Cc1ccc(CN(C2CCCC2)S(=O)(=O)c2ccc(S(=O)(=O)N(Cc3ccccn3)c3sccc3C)cc2)cc1` [Compound 42] it is 100 to 1000 nM.

Turning to `Cc1ccc(CN(C2CCCC2)S(=O)(=O)c2ccc(S(=O)(=O)N(Cc3ccccn3)c3sccc3C)cc2)cc1Cl` [Compound 43], the Kd was in the range of 100 to 1000 nM.

For the compound `O=S(=O)(NCC1CCNCC1)c1ccc(S(=O)(=O)N(Cc2ccc(Cl)cc2)C2CCCC2)cc1` [Compound 45, N1-(4-chlorobenzyl)-N1-cyclopentyl-N4-(piperidin-4-ylmethyl)benzene-1,4-disulfonamide], the Kd was 1 to 30 nM.

Regarding `CCN(CC)S(=O)(=O)c1ccc(S(=O)(=O)N(Cc2ccccn2)Cc2ccco2)cc1` [Compound 46, N1,N1-diethyl-N4-(furan-2-ylmethyl)-N4-(pyridin-2-ylmethyl)benzene-1,4-disulfonamide], the Kd lay within 100 to 1000 nM. Consider `CCN(Cc1ccccc1)S(=O)(=O)c1ccc(S(=O)(=O)N(Cc2ccc(F)cc2)Cc2ccco2)cc1` [Compound 47, N1-benzyl-N1-ethyl-N4-(4-fluorobenzyl)-N4-(furan-2-ylmethyl)benzene-1,4-disulfonamide], for which the Kd lay within 30 to 100 nM. `CCN(Cc1ccccc1)S(=O)(=O)c1ccc(S(=O)(=O)N(Cc2ccccc2)Cc2ccccn2)cc1` [Compound 48, N1,N4-dibenzyl-N1-ethyl-N4-(pyridin-2-ylmethyl)benzene-1,4-disulfonamide]: the Kd fell in the range of 1 to 30 nM. With `CCN(Cc1ccccc1)S(=O)(=O)c1ccc(S(=O)(=O)N(Cc2ccccc2)Cc2ccccc2F)cc1` [Compound 49, N1,N4-dibenzyl-N1-ethyl-N4-(2-fluorobenzyl)benzene-1,4-disulfonamide] the figure was 1 to 30 nM; with `CC1CCCN(S(=O)(=O)c2ccc(S(=O)(=O)N(Cc3ccccc3Cl)CC3CCCO3)cc2)C1` (stereo not drawn) [Compound 50, N-(2-chlorobenzyl)-4-((3-methylpiperidin-1-yl)sulfonyl)-N-((tetrahydrofuran-2-yl)methyl)benzenesulfonamide], 30 to 100 nM; with `COc1cccc(CN(C2CC2)S(=O)(=O)c2ccc(S(=O)(=O)NCc3ccccc3)cc2)c1OC` [Compound 51, N1-benzyl-N4-cyclopropyl-N4-(2,3-dimethoxybenzyl)benzene-1,4-disulfonamide], 100 to 1000 nM. `O=S(=O)(c1ccc(S(=O)(=O)N(Cc2ccc(Cl)cc2)Cc2ccco2)cc1)N1CCCCCC1` [Compound 52, 4-(azepan-1-ylsulfonyl)-N-(4-chlorobenzyl)-N-(furan-2-ylmethyl)benzenesulfonamide]: the Kd was 100 to 1000 nM. On to `O=S(=O)(NC1CCCC1)c1ccc(S(=O)(=O)N(Cc2ccc(F)cc2)Cc2ccccc2F)cc1` [Compound 53, N1-cyclopentyl-N4-(2-fluorobenzyl)-N4-(4-fluorobenzyl)benzene-1,4-disulfonamide], for which the Kd lay within 100 to 1000 nM. Regarding `O=S(=O)(NC1CCCCC1)c1ccc(S(=O)(=O)N(Cc2ccccc2)Cc2ccco2)cc1` [Compound 54, N1-benzyl-N4-cyclohexyl-N1-(furan-2-ylmethyl)benzene-1,4-disulfonamide], the Kd lay within 100 to 1000 nM. Consider `CCN(Cc1ccccc1)S(=O)(=O)c1ccc(S(=O)(=O)N(Cc2ccccc2F)CC2CCCO2)cc1` (stereo not drawn) [Compound 55, N1-benzyl-N1-ethyl-N4-(2-fluorobenzyl)-N4-((tetrahydrofuran-2-yl)methyl)benzene-1,4-disulfonamide], for which the Kd lay within 1 to 30 nM. The figure for `CC(C)c1ccc(CN(CC2CCCO2)S(=O)(=O)c2ccc(S(=O)(=O)N(C)C3CCCCC3)cc2)cc1` (stereo not drawn) [Compound 56, N1-cyclohexyl-N4-(4-isopropylbenzyl)-N1-methyl-N4-((tetrahydrofuran-2-yl)methyl)benzene-1,4-disulfonamide] is 1 to 30 nM; for `COc1ccc(CN(C2CCCCC2C)S(=O)(=O)c2ccc(S(=O)(=O)N(C)C3CCCCC3)cc2)cc1OC` (stereo not drawn) [Compound 57, N1-cyclohexyl-N4-(3,4-dimethoxybenzyl)-N1-methyl-N4-(2-methylcyclohexyl)benzene-1,4-disulfonamide] it is 100 to 1000 nM; for `CC1CCCN(S(=O)(=O)c2ccc(S(=O)(=O)N(Cc3ccccc3F)C3CCCC3)cc2)C1` (stereo not drawn) [Compound 58, N-cyclopentyl-N-(2-fluorobenzyl)-4-((3-methylpiperidin-1-yl)sulfonyl)benzenesulfonamide] it is 30 to 100 nM. The figure for `CC(C)c1ccc(CN(Cc2ccco2)S(=O)(=O)c2ccc(S(=O)(=O)N(C)Cc3ccccc3)cc2)cc1` [Compound 59, N1-benzyl-N4-(furan-2-ylmethyl)-N4-(4-isopropylbenzyl)-N1-methylbenzene-1,4-disulfonamide] is 100 to 1000 nM; for `COc1cc(CN(C2CCCCC2C)S(=O)(=O)c2ccc(S(=O)(=O)NC3CCCC3)cc2)cc(OC)c1OC` (stereo not drawn) [Compound 60, N1-cyclopentyl-N4-(2-methylcyclohexyl)-N4-(3,4,5-trimethoxybenzyl)benzene-1,4-disulfonamide] it is 100 to 1000 nM.

In the case of `CN(Cc1ccccc1)S(=O)(=O)c1ccc(S(=O)(=O)N(Cc2ccc(F)cc2)C2CCCCC2)cc1` [Compound 61, N1-benzyl-N4-cyclohexyl-N4-(4-fluorobenzyl)-N1-methylbenzene-1,4-disulfonamide], the Kd lay in the range of 1 to 30 nM. With `O=S(=O)(NCC1CCCO1)c1ccc(S(=O)(=O)N(Cc2ccccc2)Cc2ccc(Cl)cc2)cc1` (stereo not drawn) [Compound 62, N1-benzyl-N1-(4-chlorobenzyl)-N4-((tetrahydrofuran-2-yl)methyl)benzene-1,4-disulfonamide], the Kd was 100 to 1000 nM.

Turning to `CC(C)c1ccc(CN(CC2CCCO2)S(=O)(=O)c2ccc(S(=O)(=O)NCc3ccccc3)cc2)cc1` (stereo not drawn) [Compound 63, N1-benzyl-N4-(4-isopropylbenzyl)-N4-((tetrahydrofuran-2-yl)methyl)benzene-1,4-disulfonamide], the Kd fell in the range of 1 to 30 nM.

Take `COc1cc(CN(C2CCCCC2)S(=O)(=O)c2ccc(S(=O)(=O)N(C)C3CCCCC3)cc2)cc(OC)c1OC` [Compound 64, N1,N4-dicyclohexyl-N1-methyl-N4-(3,4,5-trimethoxybenzyl)benzene-1,4-disulfonamide]: the Kd lay within 100 to 1000 nM. The figure for `O=S(=O)(NC1CCCCC1)c1ccc(S(=O)(=O)N(Cc2ccccc2)CC2CCCO2)cc1` (stereo not drawn) [Compound 65, N1-benzyl-N4-cyclohexyl-N1-((tetrahydrofuran-2-yl)methyl)benzene-1,4-disulfonamide] is 1 to 30 nM; for `O=S(=O)(NCc1ccccc1)c1ccc(S(=O)(=O)N(Cc2ccco2)Cc2ccccc2F)cc1` [Compound 66, N1-benzyl-N4-(2-fluorobenzyl)-N4-(furan-2-ylmethyl)benzene-1,4-disulfonamide] it is more than 1000 nM; for `COc1cccc(CN(CC2CCCO2)S(=O)(=O)c2ccc(S(=O)(=O)N3CCCC3)cc2)c1` (stereo not drawn) [Compound 67, N-(3-methoxybenzyl)-4-(pyrrolidin-1-ylsulfonyl)-N-((tetrahydrofuran-2-yl)methyl)benzenesulfonamide] it is 100 to 1000 nM.

As to `CCN(CC)S(=O)(=O)c1ccc(S(=O)(=O)N(Cc2ccc(OC)c(OC)c2)C2CCCCC2C)cc1` (stereo not drawn) [Compound 68, N1-(3,4-dimethoxybenzyl)-N4,N4-diethyl-N1-(2-methylcyclohexyl)benzene-1,4-disulfonamide], the Kd fell in the range of 1 to 30 nM. With `CCOc1ccc(CN(C2CC2)S(=O)(=O)c2ccc(S(=O)(=O)N(C)C)cc2)cc1` [Compound 69, N1-cyclopropyl-N1-(4-ethoxybenzyl)-N4,N4-dimethylbenzene-1,4-disulfonamide] the figure was 100 to 1000 nM; with `COc1ccc(CN(C2CCCCC2C)S(=O)(=O)c2ccc(S(=O)(=O)NCc3ccccc3)cc2)cc1OC` (stereo not drawn) [Compound 70, N1-benzyl-N4-(3,4-dimethoxybenzyl)-N4-(2-methylcyclohexyl)benzene-1,4-disulfonamide], 100 to 1000 nM.
